This is an account of results in patent US11427869B2, “T cell balance gene expression, compositions of matters and methods of use thereof” (THE BROAD INSTITUTE, INC., priority 2015, dated 2022).

For one assay, the target named is T1, Rorγt (Mus musculus, UniProt P51450).
T1 construct: expressed in transfected cells; host or cells: EL4 cells stably transfected with Rorγt vector
T1 sequence (P51450 1-495 isoform P51450-2): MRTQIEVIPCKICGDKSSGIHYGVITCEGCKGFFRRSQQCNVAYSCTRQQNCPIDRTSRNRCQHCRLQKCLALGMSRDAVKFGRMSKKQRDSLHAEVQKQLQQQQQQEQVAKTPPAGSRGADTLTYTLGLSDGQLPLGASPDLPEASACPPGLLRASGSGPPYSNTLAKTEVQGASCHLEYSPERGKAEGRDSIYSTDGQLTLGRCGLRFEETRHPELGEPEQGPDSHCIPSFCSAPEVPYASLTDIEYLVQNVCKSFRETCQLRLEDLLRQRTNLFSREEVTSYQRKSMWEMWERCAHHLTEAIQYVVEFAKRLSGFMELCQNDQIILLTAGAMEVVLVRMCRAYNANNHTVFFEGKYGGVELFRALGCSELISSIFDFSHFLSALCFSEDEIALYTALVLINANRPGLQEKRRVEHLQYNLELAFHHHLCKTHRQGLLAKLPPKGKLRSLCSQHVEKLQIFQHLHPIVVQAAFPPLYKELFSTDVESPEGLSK
Kind of assay: Dual luciferase reporter assay of Rorγt transcriptional activity in EL4 cells. It is filed as cell-based. As to conditions: EL4 cells, CD5L-RV 100 ng; ligand 5, 0.5 or 0.05 uM. The method, then: Cells and supernatant were harvested at 96 hours and subjected to MS/LC. Three independent mouse experiments were performed. […] All ChIP and luciferase assay are representative of at least 3 independent experiments.
Three independent experiments were performed.
A general note: Reporter assays use an easily measured gene product as a stand-in for the process of interest.

The test system of a further assay is Th17 cells. Kind of assay: qPCR of Cd5l expression in differentiated T cells. It is filed as cell-based, mouse. As to conditions: naïve T cells differentiated with TGF-β1+IL-6 for 48h, expanded in IL-23 in fresh media, 72h. The protocol:
FIG. 16A-16I. CD5L is a candidate regulator of Th17 cell functional states. (FIG. 16A-FIG. 16C) Single-cell RNA-seq analysis. (FIG. 16A) Cd5l expression of single-cells from in-vitro generated and in-vivo sorted Th17 cells (IL-17.GFP+) from mice at the peak of EAE. […] (FIG. 16D-FIG. 16F) Validation of CD5L expression in vitro. Naïve T cells (CD4+CD62L+CD44−CD25−) were sorted and differentiated as indicated and analyzed by qPCR for CD5L expression at 48h (D) and 72h (E) and by flow cytometry at 48h (F); (E) IL-23 or control was added at 48h in fresh media. (FIG. 16G-FIG. 16I) Validation of Cd5l expression in vivo. (G,H) IL-17A.GFP reporter mice were immunized to induce EAE. Cells were sorted from spleen (G) and CNS (H) at the peak of disease. Cd5l and Il17a expression are measured by qPCR. Figure shown is representative data of three technical replicates from two independent experiments. (I) Cells were sorted from the gut of naïve mice and the number of RNA transcripts measured by nanostring nCounter platform.
Next, Applicants explored whether CD5L expression is associated with less pathogenic Th17 cells in vivo. Applicants analyzed Th17 cells isolated from mice induced with EAE. […] Next, Applicants analyzed Th17 cells from mesenteric lymph nodes (mLN) and lamina propria (LP) of naïve mice, where Th17 cells contribute to tissue homeostasis and mucosal barrier function. […]
In general terms: Real-time PCR tracks product formation cycle by cycle.

Regarding `CC(CO)CCC[C@@H](C)[C@H]1CC[C@H]2[C@@H]3[C@@H](O)C=C4C[C@@H](O)CC[C@]4(C)[C@H]3CC[C@]12C` (stereo partly drawn) [7β, 27-dihydroxycholesterol], the “Il17 reporter transcription (luciferase)” value on Rorγt is on record as “rescued the CD5L-driven suppression of Il17 reporter transcription”.

B1: IL-23: recombinant mouse IL-23 (R&D), 20 ng/ml (protein, UniProt Q9EQ14 22-196; P43432 23-335, looked up)
Interleukin-23 subunit alpha: VPRSSSPDWAQCQQLSRNLCMLAWNAHAPAGHMNLLREEEDEETKNNVPRIQCEDGCDPQGLKDNSQFCLQRIRQGLAFYKHLLDSDIFKGEPALLPDSPMEQLHTSLLGLSQLLQPEDHPRETQQMPSLSSSQQWQRPLLRSKILRSLQAFLAIAARVFAHGAATLTEPLVPTA
Interleukin-12 subunit beta: MWELEKDVYVVEVDWTPDAPGETVNLTCDTPEEDDITWTSDQRHGVIGSGKTLTITVKEFLDAGQYTCHKGGETLSHSHLLLHKKENGIWSTEILKNFKNKTFLKCEAPNYSGRFTCSWLVQRNMDLKFNIKSSSSSPDSRAVTCGMASLSAEKVTLDQRDYEKYSVSCQEDVTCPTAEETLPIELALEARQQNKYENYSTSFFIRDIIKPDPPKNLQMKPLKNSQVEVSWEYPDSWSTPHSYFSLKFFVRIQRKKEKMKETEEGCNQKGAFLVEKTSTEVQCKGGNVCVQAQDRYYNSSCSKWACVPCRVRS
B1: the “Cd5l expression (qPCR)” value in the assay with Th17 cells is “suppressed”.
